Assay results published in article PMC5650142, “GPR40 partial agonists and AgoPAMs: Differentiating effects on glucose and hormonal secretions in the rodent” (PLoS ONE, 2017).
Several values for one entry are separate records, joined by “and”; a condition that tells them apart may be missing. Identical values can stand only once. Like-named read-outs stand apart in the source and are kept apart here.

Experiments:
mouse GPR40 = biological target: T1, mouse GPR40 (Mus musculus, UniProt Q76JU9); test: Mouse GPR40 IP1 accumulation assay; assay type: cell-based
T1 construct: expressed in transfected cells; host or cells: CHO-K1 (methods)
T1 sequence (Q76JU9 whole entry): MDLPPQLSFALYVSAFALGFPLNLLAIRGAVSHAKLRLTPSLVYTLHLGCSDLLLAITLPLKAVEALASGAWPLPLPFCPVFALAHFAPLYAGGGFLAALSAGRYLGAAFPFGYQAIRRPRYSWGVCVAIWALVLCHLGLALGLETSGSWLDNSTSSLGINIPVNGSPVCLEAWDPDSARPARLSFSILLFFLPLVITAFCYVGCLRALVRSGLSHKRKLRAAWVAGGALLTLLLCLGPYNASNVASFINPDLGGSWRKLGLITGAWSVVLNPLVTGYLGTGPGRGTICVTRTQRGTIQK
Experimental: (§1) Stable cell lines expressing human GPR40 (hGPR40/HEK293), mouse GPR40 (mGPR40/CHO-K1), and rat GPR40 (rGPR40/CHO-K1) were cultured in DMEM media supplemented with 10% FBS, glutamine, non-essential amino acids, and penicillin/streptomycin. hGPR40/HEK293 & mGPR40/CHO-K1 cell media was supplemented with […] G418 (Life Technologies), while rGPR40/CHO-K1 cells were grown in […] blasticidin plus […] hygromycin (Life Technologies). Cell stocks were maintained and grown in a sub-confluent state using standard cell culture procedures. The day before the experiment, the cells were harvested with non-enzymatic cell dissociation buffer and re-suspended in DMEM supplemented with 10% FBS, glutamine, non-essential amino acids, penicillin/streptomycin at 0.15, 0.2 and 0.3 million cells per ml for human, mouse, and rat GPR40, respectively. […] The seeded plates were incubated overnight at 37 C.
(§2) On the day of the experiment, the growth media was removed from the assay by gently patting the assay plates on an absorbent sheet and 10 μl of IP1 stimulation buffer (Cis Bio IP-one Tb HTRF kit) supplemented with 50 mM LiCl is added to each well. Test compounds dissolved in DMSO were serially diluted in ½ log increments starting from 2 mM or 0.2 mM and 50 nl of the compound dilution was acoustically added to each well (final starting concentration 10 μM or 1 μM). Plates were then incubated for 60 minutes at room temperature and 10 μl of detection buffer (prepared as described in the Tb kit) is added to each well. The plates are then incubated one additional hour at room temperature. […] For each assay, a standard curve plate in which IP1 is titrated is also included. […] The percent activity at each concentration of test compound is determined using 0% activation (basal activity) determined in those wells that contain DMSO alone, while 100% activity is determined in wells that contained a concentration of a partial allosteric agonist know to activate GPR40. The % activity is then plotted versus the concentration of test compound and the dose response curve fitted to a standard 4-parameter non-linear regression model using a custom in-house developed software package (Merck & Co., Inc., MRL, Kenilworth, NJ, USA). Maximal % activity and EC50 are then determined for each test compound.

rat GPR40 = biological target: T2, rat GPR40 (Rattus norvegicus, UniProt Q8K3T4); test: Rat GPR40 IP1 accumulation assay; assay type: cell-based
T2 construct: expressed in transfected cells; host or cells: CHO-K1 (methods)
T2 sequence (Q8K3T4 whole entry): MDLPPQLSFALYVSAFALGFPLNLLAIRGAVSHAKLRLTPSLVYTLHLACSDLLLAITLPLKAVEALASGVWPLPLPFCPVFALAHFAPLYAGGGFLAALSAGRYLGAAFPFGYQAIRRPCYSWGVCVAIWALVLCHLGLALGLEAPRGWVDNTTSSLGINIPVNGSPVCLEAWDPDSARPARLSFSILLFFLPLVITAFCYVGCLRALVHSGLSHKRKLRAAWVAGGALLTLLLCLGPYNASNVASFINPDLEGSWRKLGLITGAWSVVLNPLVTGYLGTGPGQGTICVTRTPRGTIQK
Experimental: as §1, §2

human GPR40 [1] = biological target: T3, human GPR40 (Homo sapiens, UniProt O14842); test: GPR40 binding assay, partial agonist tracer [3H]L358; parameters: expressed in transfected cells; host or cells: CHO / CHO-K1 cells, membrane preparation; settings: radioligand L-001533358;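 as to %Bound: 100% is tracer binding with DMSO alone and 0% is full displacement by a standard compound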
T3 sequence (O14842 whole entry): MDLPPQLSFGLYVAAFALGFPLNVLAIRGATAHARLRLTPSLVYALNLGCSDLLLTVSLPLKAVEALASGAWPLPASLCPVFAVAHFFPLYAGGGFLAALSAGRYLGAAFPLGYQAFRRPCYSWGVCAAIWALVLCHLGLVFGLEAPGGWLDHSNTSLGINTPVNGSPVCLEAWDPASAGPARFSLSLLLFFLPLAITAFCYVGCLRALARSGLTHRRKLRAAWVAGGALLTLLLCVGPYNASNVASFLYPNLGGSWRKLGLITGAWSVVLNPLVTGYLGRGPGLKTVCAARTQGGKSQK
Experimental: Two small molecule tracers, the partial agonist [3H][…] and the AgoPAM [3H]25, are used to measure compound affinity at each site as described previously. Because of the allosteric coupling of the two sites and the nature of the assay, addition of a compound will either displace (binds to same site) or augment (binds to allosterically coupled site) radiotracer. Membranes expressing GPR40 were prepared from CHO cells stably expressing human GPR40. […] Sigma P8830) and were homogenized in 50 ml aliquots with a motor-driven glass Dounce homogenizer, 15 strokes at 1900 rpm on wet ice, repeating once. Homogenates were centrifuged at 2200 rpm for 10 min at 4°C. Supernatants were carefully removed and pooled. Homogenization and centrifugation were repeated until the debris pellet was translucent to maximize membrane recovery. Supernatants were then centrifuged at […] rpm for 20 min. at 4°C. […] Protein concentration was determined by Pierce BCA kit. […] The beads and membrane mixture is then vigorously mixed for 30 minutes at room temperature prior to addition to the assay. […] Next, 15 μl of the radioligand and 35 μl of the beads/membranes solution is added to each well. The assay plates are then sealed and incubated for 30 minutes at room temperature on an orbital shaker. The plates are allowed to settle for 16 hours and then counted on a TopCount scintillation counter (PE). […] Maximal % bound and IC50 are then determined for each test compound. 5 μg/well membrane together with 200 μg/well of PVT WGA SPA beads (GE #RPNG-0001) were suspended in a white 96 well plate with a final concentration of 50 μl/well in assay buffer (50 mM Tris, 10 mM MgCl2, and 2 mM EDTA). […] The plate is briefly mixed and incubated for 3-18 h at room temperature, before it is read on a MicroBeta plate counter (Perkin Elmer, MS, USA).

human GPR40 [2] = biological target: T3, human GPR40; test: Human GPR40 IP1 accumulation assay; assay type: cell-based; parameters: expressed in transfected cells
Experimental: as §1, §2

[3] = maximal % activity vs in-house partial agonist control

Compound: COc1ccc(F)c(-c2ccc(COc3cccc([C@@H](CC(=O)O)C4CC4)c3)cc2C2=CCCC2(C)C)c1 [AM-1638, reference compound]
- Mouse GPR40 Receptor Activation (%) (mouse GPR40; dose 1.00E-06 M): 394%
- Mouse GPR40 Receptor Activation (%) (mouse GPR40; dose 1.50E-11 M): -7%
- Mouse GPR40 Receptor Activation (%) (mouse GPR40; dose 1.56E-08 M): 156%
- Mouse GPR40 Receptor Activation (%) (mouse GPR40; dose 2.44E-10 M): 2.81%
- Mouse GPR40 Receptor Activation (%) (mouse GPR40; dose 2.50E-07 M): 318%
- Mouse GPR40 Receptor Activation (%) (mouse GPR40; dose 3.91E-09 M): 67%
- Mouse GPR40 Receptor Activation (%) (mouse GPR40; dose 4.00E-12 M): -8.43%
- Mouse GPR40 Receptor Activation (%) (mouse GPR40; dose 6.10E-11 M): 3.63%
- Mouse GPR40 Receptor Activation (%) (mouse GPR40; dose 6.25E-08 M): 254%
- Mouse GPR40 Receptor Activation (%) (mouse GPR40; dose 9.77E-10 M): 19%
- Mouse GPR40 Functional Assay %Act (mouse GPR40; individual replicates (n)): 406% and 397%
- EC50 (mouse GPR40; individual replicates (n), read-out: Mouse GPR40 Functional Assay EC50): 44 nM and 28 nM
- Efficacy (% Activation), Mouse (mouse GPR40; [3]): (402%)
- EC50 (mouse GPR40; mean ± SD, n = 2–20, IP accumulation, read-out: Potency [EC50, nM] ± SD, Mouse): 36 ± 11 nM
- Rat GPR40 Receptor Activation (%) (rat GPR40; dose 1.00E-06 M): 370%
- Rat GPR40 Receptor Activation (%) (rat GPR40; dose 1.50E-11 M): -18%
- Rat GPR40 Receptor Activation (%) (rat GPR40; dose 1.56E-08 M): 132%
- Rat GPR40 Receptor Activation (%) (rat GPR40; dose 2.44E-10 M): 11%
- Rat GPR40 Receptor Activation (%) (rat GPR40; dose 2.50E-07 M): 361%
- Rat GPR40 Receptor Activation (%) (rat GPR40; dose 3.91E-09 M): 23%
- Rat GPR40 Receptor Activation (%) (rat GPR40; dose 4.00E-12 M): -6%
- Rat GPR40 Receptor Activation (%) (rat GPR40; dose 6.10E-11 M): 2%
- Rat GPR40 Receptor Activation (%) (rat GPR40; dose 6.25E-08 M): 275%
- Rat GPR40 Receptor Activation (%) (rat GPR40; dose 9.77E-10 M): 18%
- Rat GPR40 Functional Assay %Act (rat GPR40; individual replicates (n)): 380% and 366%
- EC50 (rat GPR40; individual replicates (n), read-out: Rat GPR40 Functional Assay EC50): 26 nM and 56 nM
- Efficacy (% Activation), Rat (rat GPR40; [3]): (373%)
- EC50 (rat GPR40; mean ± SD, n = 2–20, IP accumulation, read-out: Potency [EC50, nM] ± SD, Rat): 41 ± 21 nM
- % Bound Normalized to 100 (human GPR40 [1]; dose 0.318285 nM): 102.20%
- %Bound (human GPR40 [1]; dose 0.318285 nM): 108.18%
- % Bound Normalized to 100 (human GPR40 [1]; dose 1.00578 nM): 103.34%
- %Bound (human GPR40 [1]; dose 1.00578 nM): 109.31%
- % Bound Normalized to 100 (human GPR40 [1]; dose 3.17827 nM): 130.10%
- %Bound (human GPR40 [1]; dose 3.17827 nM): 136.07%
- % Bound Normalized to 100 (human GPR40 [1]; dose 10.0433 nM): 137.50%
- %Bound (human GPR40 [1]; dose 10.0433 nM): 143.47%
- % Bound Normalized to 100 (human GPR40 [1]; dose 31.7369 nM): 182.19%
- %Bound (human GPR40 [1]; dose 31.7369 nM): 188.17%
- % Bound Normalized to 100 (human GPR40 [1]; dose 100.289 nM): 189.31%
- %Bound (human GPR40 [1]; dose 100.289 nM): 195.29%
- % Bound Normalized to 100 (human GPR40 [1]; dose 316.912 nM): 199.27%
- %Bound (human GPR40 [1]; dose 316.912 nM): 205.25%
- % Bound Normalized to 100 (human GPR40 [1]; dose 1001.44 nM): 201.84%
- %Bound (human GPR40 [1]; dose 1001.44 nM): 207.81%
- % Bound Normalized to 100 (human GPR40 [1]; dose 3164.56 nM): 204.40%
- %Bound (human GPR40 [1]; dose 3164.56 nM): 210.37%
- % Bound Normalized to 100 (human GPR40 [1]; dose 10000 nM): 189.59%
- %Bound (human GPR40 [1]; dose 10000 nM): 195.57%
- Human GPR40 Receptor Activation (%) (human GPR40 [2]; dose 2.00E-06 M): 237%
- Human GPR40 Receptor Activation (%) (human GPR40 [2]; dose 2.00E-07 M): 246%
- Human GPR40 Receptor Activation (%) (human GPR40 [2]; dose 2.00E-08 M): 186%
- Human GPR40 Receptor Activation (%) (human GPR40 [2]; dose 2.00E-09 M): 90%
- Human GPR40 Receptor Activation (%) (human GPR40 [2]; dose 2.00E-10 M): 5.57%
- Human GPR40 Receptor Activation (%) (human GPR40 [2]; dose 6.00E-07 M): 204%
- Human GPR40 Receptor Activation (%) (human GPR40 [2]; dose 6.00E-08 M): 223%
- Human GPR40 Receptor Activation (%) (human GPR40 [2]; dose 6.00E-09 M): 129%
- Human GPR40 Receptor Activation (%) (human GPR40 [2]; dose 6.00E-10 M): 27%
- Human GPR40 Receptor Activation (%) (human GPR40 [2]; dose 6.00E-11 M): -7%
- HUMAN GPR40 Functional Assay %Act (human GPR40 [2]; individual replicates (n)): 245% and 240% and 164% and 211% and 215% and 163%
- EC50 (human GPR40 [2]; individual replicates (n), read-out: HUMAN GPR40 Functional Assay EC50): 3.7 nM and 4.2 nM and 7.3 nM and 1.3 nM and 2.4 nM and 3.6 nM
- Efficacy (% Activation), Human (human GPR40 [2]; [3]): (200%)
- EC50 (human GPR40 [2]; mean ± SD, n = 2–20, IP accumulation, read-out: Potency [EC50, nM] ± SD, Human): 3.7 ± 1.9 nM
